Laboratory results from patent US4550078A, “Method for the quantitative determination of individual polyamine components in a mixture” (Amano Seiyaku Kabushiki Kaisha, priority 1982, dated 1985).
Read-outs that look alike come from different tables or passages of the source.

What was measured:
[1] = test system: polyamine oxidase AT-1; assay: Enzymatic oxidative decomposition by polyamine oxidase AT-1, colorimetric determination of hydrogen peroxide; type: biochemical; details: for putrescine formed / H2O2 formed: Table 1, substrates marked * only with a relatively high concentration of the enzyme; for H2O2 formed: -- = no activity; for hydrogen peroxide produced per mole of the substrate / time to completion of the reaction: pH 6.5, 35° C., 0.05 unit of enzyme (2 units for acetylspermine); for Activity of the enzyme on the substrate: spermine and spermidine at low enzyme concentration, acetylspermine and N1-acetylspermidine when the concentration of the enzyme is increased
[2] = test system: polyamine oxidase PC-3; assay: Enzymatic oxidative decomposition by polyamine oxidase PC-3, colorimetric determination of hydrogen peroxide; type: biochemical; details: for Activity of the enzyme on the substrate: N8-acetylspermidine only if the concentration of the enzyme is relatively high; for H2O2 formed: substrates marked * only with a relatively high concentration of the enzyme, -- = no activity; for hydrogen peroxide produced per mole of the substrate / time to completion of the reaction: pH 5.5, 35° C., about 0.05 unit of enzyme (about 15 units for N8-acetylspermidine)
[3] = molecular target: T1, putrescine oxidase (Kocuria rosea, UniProt P40974); assay: Enzymatic oxidative decomposition by putrescine oxidase, colorimetric determination of hydrogen peroxide; type: biochemical; details: for H2O2 formed: Table 1, -- = no activity; for hydrogen peroxide produced per mole of the substrate / time to completion of the reaction: borate buffer pH 8.5, 35° C., about 0.5 unit of enzyme
T1 sequence (P40974 1-478): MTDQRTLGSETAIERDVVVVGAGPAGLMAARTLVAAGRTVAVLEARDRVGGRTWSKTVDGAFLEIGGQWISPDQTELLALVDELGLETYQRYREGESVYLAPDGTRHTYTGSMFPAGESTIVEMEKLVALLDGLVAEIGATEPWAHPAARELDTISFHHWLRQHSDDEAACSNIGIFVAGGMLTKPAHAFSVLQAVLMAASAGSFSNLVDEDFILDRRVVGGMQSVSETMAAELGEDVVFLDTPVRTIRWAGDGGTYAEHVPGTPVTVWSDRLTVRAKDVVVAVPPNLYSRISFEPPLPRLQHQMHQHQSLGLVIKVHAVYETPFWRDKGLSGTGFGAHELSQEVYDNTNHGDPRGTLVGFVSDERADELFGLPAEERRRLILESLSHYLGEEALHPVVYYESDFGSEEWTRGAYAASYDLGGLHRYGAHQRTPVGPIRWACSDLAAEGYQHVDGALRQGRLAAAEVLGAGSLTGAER

[4] = test system: polyamine oxidase AT-1 followed by putrescine oxidase; assay: Two-step reaction: polyamine oxidase AT-1, then putrescine oxidase; type: biochemical; details: for absorbance after the first step / increment of absorbance in the second step / absorbance after the second step: 505 nm; for absorbance after the first step: AT-1 0.05 unit (about 5 units for acetylspermine and N1-acetylspermidine), 0.5 ml of 400 μM substrate in 2.5 ml; for increment of absorbance in the second step: after addition of putrescine oxidase; for absorbance after the second step: putrescine oxidase 0.5 unit, pH 8-9, 5 minutes; for hydrogen peroxide produced per mole of the substrate in the first step: polyamine oxidase AT-1; for hydrogen peroxide produced in the second step: putrescine oxidase acting on the putrescine produced in the first step
[5] = test system: polyamine oxidase PC-3 followed by putrescine oxidase; assay: Two-step reaction: polyamine oxidase PC-3, then putrescine oxidase; type: biochemical; details: for absorbance after the first step / increment of absorbance in the second step / absorbance after the second step: 505 nm; for absorbance after the first step: PC-3 about 0.05 unit, acetate buffer pH 5.0; for increment of absorbance in the second step: after addition of putrescine oxidase; for absorbance after the second step: putrescine oxidase about 0.5 unit, pH 8-8.5, 5 minutes; for hydrogen peroxide produced per mole of the substrate in the first step: polyamine oxidase PC-3; for hydrogen peroxide produced per mole of the substrate in the second step: putrescine oxidase
[6] = test system: polyamine oxidase AT-1; details: cited from earlier work
[7] = test system: polyamine oxidase PC-3; details: cited from earlier work
[8] = molecular target: T1, putrescine oxidase; details: cited from earlier work
[9] = test system: polyamine oxidase PC-3 followed by acetylputrescine oxidase; assay: Two-step reaction: polyamine oxidase PC-3, then acetylputrescine oxidase; type: biochemical

Question: With `NCCCCNCCCN` [spermidine] as the molecule, how does the putrescine formed [1] read?
Answer: 1 moles per mole of the substrat

Question: What about the H2O2 formed [1] of the same molecule?
Answer: 1 moles per mole of the substrat

Question: What about the “hydrogen peroxide produced per mole of the substrate” value [1] of the same molecule?
Answer: 1 mol

Question: What about the “time to completion of the reaction” value [1] of the same molecule?
Answer: ≤ 5 min

Question: What about the “Activity of the enzyme on the substrate” value [1] of the same molecule?
Answer: active

Question: And the “Activity of the enzyme on the substrate” value [2]?
Answer: active

Question: What about the putrescine formed ([2]; Table 1) of the same molecule?
Answer: 1 moles per mole of the substrat

Question: What about the H2O2 formed ([2]; Table 1) of the same molecule?
Answer: 1 moles per mole of the substrat

Question: What about the “hydrogen peroxide produced per mole of the substrate” value [2] of the same molecule?
Answer: 1 mol

Question: What about the “time to completion of the reaction” value [2] of the same molecule?
Answer: ≤ 10 min

Question: And the H2O2 formed [3]?
Answer: 1 moles per mole of the substrat

Question: And the “hydrogen peroxide produced per mole of the substrate” value [3]?
Answer: 1 mol

Question: What about the “time to completion of the reaction” value [3] of the same molecule?
Answer: ≤ 10 min

Question: And the “absorbance after the first step” value [4]?
Answer: 0.50

Question: What about the “increment of absorbance in the second step” value (shortened to “increment of absorbance”) [4] of the same molecule?
Answer: 0.50

Question: And the “absorbance after the second step” value [4]?
Answer: 1.00

Question: And the “hydrogen peroxide produced per mole of the substrate in the first step” value [4]?
Answer: 1 mol

Question: And the “hydrogen peroxide produced in the second step” value [4]?
Answer: 1 mol

Question: And the “absorbance after the first step” value [5]?
Answer: 0.50

Question: What about the “increment of absorbance” value [5] of the same molecule?
Answer: 0.50

Question: And the “absorbance after the second step” value [5]?
Answer: 1.00

Question: And the “hydrogen peroxide produced per mole of the substrate in the first step” value [5]?
Answer: 1 mol

Question: What about the “hydrogen peroxide produced per mole of the substrate in the second step” value [5] of the same molecule?
Answer: 1 mol

Question: What about the Substrate specificity ([6]; oxidation with formation of hydrogen peroxide) of the same molecule?
Answer: active

Question: What about the “Enzymatic activity: products per mole of the substrate” value (shortened to “Enzymatic activity: products per mole”) ([6]; polyamine oxidase AT-1) of the same molecule?
Answer: each 1 mole of putrescine, 3-aminopropanal and hydrogen peroxide

Question: And the “Enzymatic activity: products per mole” value ([7]; polyamine oxidase PC-3)?
Answer: each 1 mole of putrescine, 3-aminopropanaland hydrogen peroxide

Question: And the Substrate specificity ([7]; polyamine oxidase PC-3)?
Answer: active

Question: What about the “Enzymatic activity: products per mole” value [8] of the same molecule?
Answer: each 1 mole of 1,3-diaminopropane, 4-aminobutanal and hydrogen peroxide

Question: And the Substrate specificity [8]?
Answer: active

Question: What does the source list for `NCCCNCCCCNCCCN` [spermine]?
Answer: absorbance at completion of the reaction ([1]; 505 nm, 0.5 ml of 400 μM substrate in 2.5 ml, pH 6.5, 35° C., 0.05 unit of enzyme): 1.00; putrescine formed [1]: 1 moles per mole of the substrat; H2O2 formed [1]: 2 moles per mole of the substrat; hydrogen peroxide produced per mole of the substrate [1]: 2 mol; time to completion of the reaction [1]: ≤ 5 min; Activity of the enzyme on the substrate [1]: active; Activity of the enzyme on the substrate [2]: active; putrescine formed ([2]; Table 1): 1 moles per mole of the substrat; H2O2 formed ([2]; Table 1): 2 moles per mole of the substrat; hydrogen peroxide produced per mole of the substrate [2]: 2 mol; time to completion of the reaction [2]: ≤ 5 min; absorbance after the first step [4]: 1.00; increment of absorbance in the second step [4]: 0.50; absorbance after the second step [4]: 1.50; hydrogen peroxide produced per mole of the substrate in the first step [4]: 2 mol; hydrogen peroxide produced in the second step [4]: 1 mol; absorbance after the first step [5]: 1.00; increment of absorbance in the second step [5]: 0.50; absorbance after the second step [5]: 1.50; hydrogen peroxide produced per mole of the substrate in the first step [5]: 2 mol; hydrogen peroxide produced per mole of the substrate in the second step [5]: 1 mol; Enzymatic activity: products per mole of the substrate [6]: 1 mole of putrescine and each 2 moles of 3-aminopropanal and hydrogen peroxide; Substrate specificity [6]: active; Enzymatic activity: products per mole of the substrate [7]: 1 mole of putrescine and each 2 moles of 3-aminopropanal and hydrogen peroxide; Substrate specificity [7]: active; Substrate specificity [8]: inactive

Question: For silver, which Inhibitors ([6]; polyamine oxidase AT-1) is on record?
Answer: strong inhibition

Question: What about the Inhibitors ([7]; spermidine as the substrate) of the same molecule?
Answer: inhibition

Question: What about the Inhibitors ([7]; spermine as the substrate) of the same molecule?
Answer: inhibition

Question: Which “Activity of the enzyme on the substrate” value [2] does the source give for `CC(=O)NCCCCNCCCN` [N^8 -acetylspermidine] here?
Answer: active

Question: What about the acetylputrescine formed ([2]; Table 1, relatively high concentration of the enzyme) of the same molecule?
Answer: 1 moles per mole of the substrat

Question: What about the H2O2 formed ([2]; Table 1) of the same molecule?
Answer: 1 moles per mole of the substrat

Question: What about the “hydrogen peroxide produced per mole of the substrate” value [2] of the same molecule?
Answer: 1 mol

Question: And the “time to completion of the reaction” value [2]?
Answer: ≤ 10 min

Question: And the “absorbance after the first step” value ([9]; 505 nm, PC-3 about 15 units, pH 5.5, 0.5 ml of 400 μM substrate in 2.5 ml)?
Answer: 0.500

Question: What about the “absorbance after the second step” value ([9]; 505 nm, acetylputrescine oxidase about 0.5 unit, pH about 7.5, about 10 minutes) of the same molecule?
Answer: 1.000

Question: And the “increment of absorbance” value ([9]; 505 nm, after addition of acetylputrescine oxidase)?
Answer: 0.500

Question: What about the “hydrogen peroxide produced per mole of the substrate in the second step” value ([9]; acetylputrescine oxidase) of the same molecule?
Answer: 1 mol

Question: What about the “hydrogen peroxide produced per mole of the substrate in the first step” value ([9]; polyamine oxidase PC-3) of the same molecule?
Answer: 1 mol

Question: For `NCCCCN` [putrescine], which H2O2 formed [3] is on record?
Answer: 1 moles per mole of the substrat

Question: And the “hydrogen peroxide produced per mole of the substrate” value [3]?
Answer: 1 mol

Question: And the “time to completion of the reaction” value [3]?
Answer: ≤ 5 min

Question: What about the “Enzymatic activity: products per mole” value [8] of the same molecule?
Answer: each 1 mole of 4-aminobutanal, hydrogen peroxide and ammonia

Question: What about the Substrate specificity [8] of the same molecule?
Answer: active

Question: For `NCCCN` [1,3-diaminopropane], which Substrate specificity [8] is on record?
Answer: inactive

Question: Which Inhibitors ([7]; spermine as the substrate) does the source give for `O=C(O)c1cc[c]([Hg][Cl])cc1` [PCMB] here?
Answer: inhibition

Question: Which Inhibitors [7] does the source give for `O=C(O)CI` [monoiodoacetic acid] here?
Answer: inhibition
